# Data taken from patent US20040127446A1 (priority 1992, published 2004).
# [invAb] = 3' inverted deoxyabasic cap; [2NH2-N] = 2'-deoxy-2'-amino ribonucleotide (N: the base); [amino-N] = 2'-deoxy-2'-amino nucleotide (N: the base); [I] = hypoxanthine (inosine); m = 2'-O-methyl; r = 2'-OH (RNA)
# Tested on: minus strand HCV RNA
# Format: biochemical, Hepatitis C virus
# Conditions: minus strand (−) HCV site, 50 mM Tris-Cl, pH 8.0, 40 mM Mg2+ at 37°, trace substrate, enzymatic nucleic acid concentration of 500 nM or greater
row,Substance,% Substrate Cleaved in 3 hours [%]
1,"22756 (UGGAAGAGCCGAAAGGCGAGUGAGGUCUGGCGUGA; 2'-O-methyl at 1, 2, 3, 4, 5, 6, 7, 8, 9, 10, 11, 12, 13, 14, 15, 16, [2NH2-N] at 17, 27, [invAb] at 3' end, other sugars and backbone not given here) [compound 22756]",73.47
2,"22780 (GACACUGCUGAUGAGGCCGUUAGGCCGAANACACCA; ribozyme; 2'-O-methyl at 1, 2, 3, 4, 5, 6, 7, 15, 16, 17, 18, 19, 20, 21, 22, 23, 24, 25, 26, 31, 32, 33, 34, 35, 36, [I] at 30, [invAb] at 3' end, other sugars and backbone not given here) [compound 22780]",87.33
3,"22752 (AAGAGGAGCCGAAAGGCGAGUGAGGUCUGCGGCGA; 2'-O-methyl at 1, 2, 3, 4, 5, 6, 7, 8, 9, 10, 11, 12, 13, 14, 15, 16, [amino-N] at 17, 27, [invAb] at 3' end, other sugars and backbone not given here) [compound 22752]",27.83
4,"22950 (AGGAUGACUGAUGAGGCCGUUAGGCCGAAAGAGAGG; 2'-O-methyl at 1, 2, 3, 4, 5, 6, 7, 15, 16, 17, 18, 19, 20, 21, 22, 23, 24, 25, 26, 31, 32, 33, 34, 35, 36, [invAb] at 3' end, other sugars and backbone not given here) [compound 22950]",83.43
5,"22782 (GGAUGAGCUGAUGAGGCCGUUAGGCCGAANAGAGGU; 2'-O-methyl at 1, 2, 3, 4, 5, 6, 7, 15, 16, 17, 18, 19, 20, 21, 22, 23, 24, 25, 26, 31, 32, 33, 34, 35, 36, [I] at 30, [invAb] at 3' end, other sugars and backbone not given here) [compound 22782]",78.83
6,22977 (AAGGAGAGGCTAGCTACAACGAGAAGGCGN; 3' inverted abasic cap (B); Description of Artificial Sequence: Nucleic Acid; misc_feature (30)..(30): n stands for inverted deoxyabasic derivative; misc_feature (1)..(7): 2'-O-Methyl; misc_feature (23)..(29): 2'-O-Methyl) [compound 22977],71.28
7,"22753 (UGGAAGAGCCGAAAGGCGAGUGAGGUCUACUGAGA; 2'-O-methyl at 1, 2, 3, 4, 5, 6, 7, 8, 9, 10, 11, 12, 13, 14, 15, 16, [2NH2-N] at 17, 27, [invAb] at 3' end, other sugars and backbone not given here) [compound 22753]",89.39
8,"22725 (GGAAAAGUGAUGGCAUGCACUAUGCGCGAACAGGA; sugars from the 5' end mmmmmmmmrrrmmmmmrmmmmmmmmmrmmmmmmmm, [invAb] at 3' end, backbone not given here) [compound 22725]",94.66
9,"22949 (GCUGGAACUGAUGAGGCCGUUAGGCCGAAACACUGA; 2'-O-methyl at 1, 2, 3, 4, 5, 6, 7, 15, 16, 17, 18, 19, 20, 21, 22, 23, 24, 25, 26, 31, 32, 33, 34, 35, 36, [invAb] at 3' end, other sugars and backbone not given here) [compound 22949]",89.16
10,22980 (GUUGUGAGGCTAGCTACAACGAUUGGAGGN; 3' inverted abasic cap (B); Description of Artificial Sequence: Nucleic Acid; misc_feature (30)..(30): n stands for inverted deoxyabasic derivative; misc_feature (1)..(7): 2'-O-Methyl; misc_feature (23)..(29): 2'-O-Methyl) [compound 22980],34.60
11,"22781 (GAGAUGACUGAUGAGGCCGUUAGGCCGAANGCGAAG; 2'-O-methyl at 1, 2, 3, 4, 5, 6, 7, 15, 16, 17, 18, 19, 20, 21, 22, 23, 24, 25, 26, 31, 32, 33, 34, 35, 36, [I] at 30, [invAb] at 3' end, other sugars and backbone not given here) [compound 22781]",70.67
12,"22727 (GGACGAGUGAUGGCAUGCACUAUGCGCGACUUUGU; sugars from the 5' end mmmmmmmmrrrmmmmmrmmmmmmmmmrmmmmmmmm, [invAb] at 3' end, backbone not given here) [compound 22727]",67.20
13,"22948 (GCGAGCCCUGAUGAGGCCGUUAGGCCGAAACGAGUC; 2'-O-methyl at 1, 2, 3, 4, 5, 6, 7, 15, 16, 17, 18, 19, 20, 21, 22, 23, 24, 25, 26, 31, 32, 33, 34, 35, 36, [invAb] at 3' end, other sugars and backbone not given here) [compound 22948]",88.34
14,"22784 (UGGAUGACUGAUGAGGCCGUUAGGCCGAANCUGUUG; 2'-O-methyl at 1, 2, 3, 4, 5, 6, 7, 15, 16, 17, 18, 19, 20, 21, 22, 23, 24, 25, 26, 31, 32, 33, 34, 35, 36, [I] at 30, [invAb] at 3' end, other sugars and backbone not given here) [compound 22784]",90.41
15,"22724 (GGAUGGUUGAUGGCAUGCACUAUGCGCGAGACAGG; sugars from the 5' end mmmmmmmmrrrmmmmmrmmmmmmmmmrmmmmmmmm, [invAb] at 3' end, backbone not given here) [compound 22724]",65.16
16,"22726 (AGAAGAAUGAUGGCAUGCACUAUGCGCGACGAGGA; sugars from the 5' end mmmmmmmmrrrmmmmmrmmmmmmmmmrmmmmmmmm, [invAb] at 3' end, backbone not given here) [compound 22726]",82.14
17,22978 (AGGAGGAGGCTAGCTACAACGAGAGAGAGN; 3' inverted abasic cap (B); Description of Artificial Sequence: Nucleic Acid; misc_feature (1)..(7): 2'-O-Methyl; misc_feature (23)..(29): 2'-O-Methyl; misc_feature (30)..(30): n stands for inverted deoxyabasic derivative) [compound 22978],61.60
18,"22728 (GGUAGGUUGAUGGCAUGCACUAUGCGCGAAGUGGC; sugars from the 5' end mmmmmmmmrrrmmmmmrmmmmmmmmmrmmmmmmmm, [invAb] at 3' end, backbone not given here) [compound 22728]",81.06
19,"22952 (GACUGGACUGAUGAGGCCGUUAGGCCGAAAUGCACG; 2'-O-methyl at 1, 2, 3, 4, 5, 6, 7, 15, 16, 17, 18, 19, 20, 21, 22, 23, 24, 25, 26, 31, 32, 33, 34, 35, 36, [invAb] at 3' end, other sugars and backbone not given here) [compound 22952]",86.96
